Assay results reported in the supplement of paper PMC10307832.

What was measured:
Assay in all cases: relative viability (nuclei count vs DMSO), 5 days (fraction); higher = more cells survive
ABC-1 = tested on: ABC-1
How it was run: (§1)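 Nuclei were stained with Hoechst during a one-step fixation (final 0.05% Triton X-100, 1% formaldehyde, 1 ug/ml Hoechst) carried out 5 days after dosing, then counted on 4× images. The cells, lung cancer lines in 1536-well plates, had been dosed by pin tool the day after seeding with one drug alone or a fixed anchor-drug dose plus five library-drug doses (not always all listed) in √10 steps. Relative viability is the nuclei count in treated wells divided by that in vehicle wells, and each value is the median of duplicate plates.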

CAL-12T = tested on: CAL-12T
How it was run: as §1

COR-L 105 = tested on: COR-L 105
How it was run: as §1

ChaGo-K-1 = tested on: ChaGo-K-1
How it was run: as §1

EMC-BAC-2 = tested on: EMC-BAC-2
How it was run: as §1

EPLC-272H = tested on: EPLC-272H
How it was run: as §1

HCC-15 = tested on: HCC-15
How it was run: as §1

HOP-62 = tested on: HOP-62
How it was run: as §1

LXF-289 = tested on: LXF-289
How it was run: as §1

NCI-H1666 = tested on: NCI-H1666
How it was run: as §1

NCI-H1755 = tested on: NCI-H1755
How it was run: as §1

NCI-H1915 = tested on: NCI-H1915
How it was run: as §1

NCI-H1975 = tested on: NCI-H1975
How it was run: as §1

NCI-H2023 = tested on: NCI-H2023
How it was run: as §1

NCI-H2085 = tested on: NCI-H2085
How it was run: as §1

NCI-H2126 = tested on: NCI-H2126
How it was run: as §1

NCI-H3122 = tested on: NCI-H3122
How it was run: as §1

NCI-H322M = tested on: NCI-H322M
How it was run: as §1

NCI-H358 = tested on: NCI-H358
How it was run: as §1

NCI-H441 = tested on: NCI-H441
How it was run: as §1

UMC-11 = tested on: UMC-11
How it was run: as §1

`O=c1cc(N2CCOCC2)oc2c(-c3cccc4c3sc3ccccc34)cccc12` + CCNC(=O)c1noc(-c2cc(C(C)C)c(O)cc2O)c1-c1ccc(CN2CCOCC2)cc1 [Luminespib] (partner 0.01 µM) gave a relative viability (ABC-1; first compound 0.01 µM) of 0.458, a relative viability (ABC-1; first compound 0.03162 µM) of 0.452 and a relative viability (ABC-1; first compound 0.1 µM) of 0.796. The relative viability (ABC-1; first compound 0.3162 µM) was 0.501, the relative viability (ABC-1; first compound 1 µM) was 0.53 and the relative viability (CAL-12T; first compound 0.01 µM) was 0.723. It also gave a relative viability (CAL-12T; first compound 0.03162 µM) of 0.621, a relative viability (CAL-12T; first compound 0.1 µM) of 0.292 and a relative viability (CAL-12T; first compound 0.3162 µM) of 0.31. For the same compound, the relative viability (CAL-12T; first compound 1 µM) was 0.527, the relative viability (COR-L 105; first compound 0.01 µM) was 0.738 and the relative viability (COR-L 105; first compound 0.03162 µM) was 0.739. For the same compound, the relative viability (COR-L 105; first compound 0.1 µM) was 0.758, the relative viability (COR-L 105; first compound 0.3162 µM) was 0.754 and the relative viability (COR-L 105; first compound 1 µM) was 0.603. For the same compound, the relative viability (ChaGo-K-1; first compound 0.01 µM) was 0.689, the relative viability (ChaGo-K-1; first compound 0.03162 µM) was 0.682 and the relative viability (ChaGo-K-1; first compound 0.1 µM) was 0.714. For the same compound, the relative viability (ChaGo-K-1; first compound 0.3162 µM) was 0.582, the relative viability (ChaGo-K-1; first compound 1 µM) was 0.689 and the relative viability (EMC-BAC-2; first compound 0.01 µM) was 1.21. The relative viability (EMC-BAC-2; first compound 0.03162 µM) was 1.24, the relative viability (EMC-BAC-2; first compound 0.1 µM) was 1.14 and the relative viability (EMC-BAC-2; first compound 0.3162 µM) was 1.07. The relative viability (EMC-BAC-2; first compound 1 µM) was 1.11, the relative viability (EPLC-272H; first compound 0.01 µM) was 0.244 and the relative viability (EPLC-272H; first compound 0.03162 µM) was 0.449. The relative viability (EPLC-272H; first compound 0.3162 µM) was 0.19, the relative viability (EPLC-272H; first compound 1 µM) was 0.281 and the relative viability (HCC-15; first compound 0.01 µM) was 0.301. For the same compound, the relative viability (HCC-15; first compound 0.03162 µM) was 0.294, the relative viability (HCC-15; first compound 0.1 µM) was 0.604 and the relative viability (HCC-15; first compound 0.3162 µM) was 0.339. For the same compound, the relative viability (HCC-15; first compound 1 µM) was 0.344, the relative viability (HOP-62; first compound 0.01 µM) was 1.05 and the relative viability (HOP-62; first compound 0.03162 µM) was 0.822. The relative viability (HOP-62; first compound 0.1 µM) was 0.842, the relative viability (HOP-62; first compound 0.3162 µM) was 1.03 and the relative viability (HOP-62; first compound 1 µM) was 0.974. For the same compound, the relative viability (LXF-289; first compound 0.01 µM) was 0.646, the relative viability (LXF-289; first compound 0.03162 µM) was 0.657 and the relative viability (LXF-289; first compound 0.1 µM) was 0.773. It also gave a relative viability (LXF-289; first compound 0.3162 µM) of 0.752, a relative viability (LXF-289; first compound 1 µM) of 0.714 and a relative viability (NCI-H1666; first compound 0.01 µM) of 0.889. The relative viability (NCI-H1666; first compound 0.03162 µM) was 1.01, the relative viability (NCI-H1666; first compound 0.1 µM) was 0.995 and the relative viability (NCI-H1666; first compound 0.3162 µM) was 0.969. It also gave a relative viability (NCI-H1666; first compound 1 µM) of 0.93, a relative viability (NCI-H1755; first compound 0.01 µM) of 0.501 and a relative viability (NCI-H1755; first compound 0.03162 µM) of 0.265. For the same compound, the relative viability (NCI-H1755; first compound 0.1 µM) was 0.496, the relative viability (NCI-H1755; first compound 0.3162 µM) was 0.419 and the relative viability (NCI-H1755; first compound 1 µM) was 0.563. For the same compound, the relative viability (NCI-H1915; first compound 0.01 µM) was 0.875, the relative viability (NCI-H1915; first compound 0.03162 µM) was 0.831 and the relative viability (NCI-H1915; first compound 0.1 µM) was 0.807. The relative viability (NCI-H1915; first compound 0.3162 µM) was 0.791, the relative viability (NCI-H1915; first compound 1 µM) was 0.855 and the relative viability (NCI-H1975; first compound 0.01 µM) was 0.198. The relative viability (NCI-H1975; first compound 0.03162 µM) was 0.242, the relative viability (NCI-H1975; first compound 0.1 µM) was 0.202 and the relative viability (NCI-H1975; first compound 0.3162 µM) was 0.271. It also gave a relative viability (NCI-H1975; first compound 1 µM) of 0.227, a relative viability (NCI-H2023; first compound 0.01 µM) of 0.672 and a relative viability (NCI-H2023; first compound 0.03162 µM) of 0.72. The relative viability (NCI-H2023; first compound 0.1 µM) was 0.793, the relative viability (NCI-H2023; first compound 0.3162 µM) was 0.859 and the relative viability (NCI-H2023; first compound 1 µM) was 0.588. It also gave a relative viability (NCI-H2085; first compound 0.01 µM) of 0.407, a relative viability (NCI-H2085; first compound 0.03162 µM) of 0.427 and a relative viability (NCI-H2085; first compound 0.1 µM) of 0.534. The relative viability (NCI-H2085; first compound 0.3162 µM) was 0.49, the relative viability (NCI-H2085; first compound 1 µM) was 0.48 and the relative viability (NCI-H2126; first compound 0.01 µM) was 0.923. It also gave a relative viability (NCI-H2126; first compound 0.03162 µM) of 0.893, a relative viability (NCI-H2126; first compound 0.1 µM) of 0.922 and a relative viability (NCI-H2126; first compound 0.3162 µM) of 0.93. For the same compound, the relative viability (NCI-H2126; first compound 1 µM) was 0.756, the relative viability (NCI-H3122; first compound 0.01 µM) was 0.073 and the relative viability (NCI-H3122; first compound 0.03162 µM) was 0.101. For the same compound, the relative viability (NCI-H3122; first compound 0.1 µM) was 0.0916, the relative viability (NCI-H3122; first compound 0.3162 µM) was 0.0864 and the relative viability (NCI-H3122; first compound 1 µM) was 0.0779. The relative viability (NCI-H322M; first compound 0.01 µM) was 0.901, the relative viability (NCI-H322M; first compound 0.03162 µM) was 0.864 and the relative viability (NCI-H322M; first compound 0.1 µM) was 0.889. It also gave a relative viability (NCI-H322M; first compound 0.3162 µM) of 0.839, a relative viability (NCI-H322M; first compound 1 µM) of 0.756 and a relative viability (NCI-H358; first compound 0.01 µM) of 0.235. The relative viability (NCI-H358; first compound 0.03162 µM) was 0.397, the relative viability (NCI-H358; first compound 0.1 µM) was 0.33 and the relative viability (NCI-H358; first compound 0.3162 µM) was 0.229. It also gave a relative viability (NCI-H358; first compound 1 µM) of 0.332, a relative viability (NCI-H441; first compound 0.01 µM) of 0.334 and a relative viability (NCI-H441; first compound 0.03162 µM) of 0.406. For the same compound, the relative viability (NCI-H441; first compound 0.1 µM) was 0.357, the relative viability (NCI-H441; first compound 0.3162 µM) was 0.417 and the relative viability (NCI-H441; first compound 1 µM) was 0.454. The relative viability (UMC-11; first compound 0.01 µM) was 0.971, the relative viability (UMC-11; first compound 0.03162 µM) was 0.997 and the relative viability (UMC-11; first compound 0.1 µM) was 1.12. For the same compound, the relative viability (UMC-11; first compound 0.3162 µM) was 0.986 and the relative viability (UMC-11; first compound 1 µM) was 0.982.
